Assay results as given in ChEMBL document CHEMBL1201862, “PubChem BioAssay data set” (2004).
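The compound was tested at five concentrations on cells cultured in 96-well plates, with a 48-hour exposure period. The concentration for 50% growth inhibition is given as GI50.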 The source made the active and inactive calls. No stated cut-off is given here; in the data, active = GI50 up to about 1.1 µM and inactive = higher.

Key:
Assay in all cases: inhibition of tumour cell growth, NCI panel, 48 h
NCI-H226 = test system: NCI-H226
KM-20L2 = test system: KM-20L2
HCT-116 = test system: HCT-116
UACC-62 = test system: UACC-62
SN12C = test system: SN12C
U-251 = test system: U-251
786-0 = test system: 786-0
MOLT-4 = test system: MOLT-4
SF-295 = test system: SF-295
EKVX = test system: EKVX
SNB-78 = test system: SNB-78
NCI-H460 = test system: NCI-H460
K562 = test system: K562
HOP-18 = test system: HOP-18
OVCAR-4 = test system: OVCAR-4
HL-60 = test system: HL-60
LXFL 529 = test system: LXFL 529
SR = test system: SR
HCC 2998 = test system: HCC 2998
IGROV-1 = test system: IGROV-1
SF-539 = test system: SF-539
Malme-3M = test system: Malme-3M
COLO 205 = test system: COLO 205
LOX IMVI = test system: LOX IMVI
SK-MEL-5 = test system: SK-MEL-5
ACHN = test system: ACHN
OVCAR-8 = test system: OVCAR-8
A549 = test system: A549
RPMI-8226 = test system: RPMI-8226
UO-31 = test system: UO-31
HT-29 = test system: HT-29
UACC-257 = test system: UACC-257
DMS-273 = test system: DMS-273
RXF 631 = test system: RXF 631
A498 = test system: A498
XF498 = test system: XF498
NCI-H522 = test system: NCI-H522
SK-MEL-28 = test system: SK-MEL-28
DLD-1 = test system: DLD-1
SNB-75 = test system: SNB-75
SK-OV-3 = test system: SK-OV-3
TK-10 = test system: TK-10
M14 = test system: M14
SF-268 = test system: SF-268
CAKI-1 = test system: CAKI-1
M19-MEL = test system: M19-MEL
NCI-H23 = test system: NCI-H23
HOP-62 = test system: HOP-62
SNB-19 = test system: SNB-19
RXF 393 = test system: RXF 393
OVCAR-3 = test system: OVCAR-3
DMS-114 = test system: DMS-114
HOP-92 = test system: HOP-92
KM12 = test system: KM12
SW-620 = test system: SW-620
HCT-15 = test system: HCT-15
OVCAR-5 = test system: OVCAR-5
SK-MEL-2 = test system: SK-MEL-2
CCRF-CEM = test system: CCRF-CEM

Q: What does the source list for Cc1ccc(NC(=O)COC(=O)c2cccc3c(=O)c4ccccc4[nH]c23)cc1?
A: GI50 (NCI-H226): 26.5 µM (inactive); GI50 (KM-20L2): 53.2 µM (inactive); GI50 (HCT-116): 14.6 µM (inactive); GI50 (UACC-62): 30.6 µM (inactive); GI50 (SN12C): 32.1 µM (inactive); GI50 (U-251): 29.4 µM (inactive); GI50 (786-0): 28.4 µM (inactive); GI50 (MOLT-4): 13.6 µM (inactive); GI50 (SF-295): 35.7 µM (inactive); GI50 (EKVX): 16.8 µM (inactive); GI50 (SNB-78): 27.6 µM (inactive); GI50 (NCI-H460): 35.2 µM (inactive); GI50 (K562): 32.7 µM (inactive); GI50 (HOP-18): > 100 µM (inactive); GI50 (OVCAR-4): 48.3 µM (inactive); GI50 (HL-60): 38.3 µM (inactive); GI50 (LXFL 529): 32.1 µM (inactive); GI50 (SR): 13 µM (inactive); GI50 (HCC 2998): 37.6 µM (inactive); GI50 (IGROV-1): 44.8 µM (inactive); GI50 (SF-539): 22.9 µM (inactive); GI50 (Malme-3M): 47 µM (inactive); GI50 (COLO 205): 21.9 µM (inactive); GI50 (LOX IMVI): 16.9 µM (inactive); GI50 (SK-MEL-5): 21.6 µM (inactive); GI50 (ACHN): 27 µM (inactive); GI50 (OVCAR-8): 35.3 µM (inactive); GI50 (A549): 36.6 µM (inactive); GI50 (RPMI-8226): 87.7 µM (inactive); GI50 (UO-31): 5.35 µM (inactive); GI50 (HT-29): 36.6 µM (inactive); GI50 (UACC-257): 39.9 µM (inactive); GI50 (DMS-273): 23.6 µM (inactive); GI50 (RXF 631): 24.4 µM (inactive); GI50 (A498): 19.1 µM (inactive); GI50 (XF498): 41 µM (inactive); GI50 (NCI-H522): 9.29 µM (inactive); GI50 (SK-MEL-28): 47.4 µM (inactive); GI50 (DLD-1): 14.6 µM (inactive); GI50 (SNB-75): 31.3 µM (inactive); GI50 (SK-OV-3): 25.5 µM (inactive); GI50 (TK-10): 22 µM (inactive); GI50 (M14): 68.5 µM (inactive); GI50 (SF-268): 35.6 µM (inactive); GI50 (CAKI-1): 29.2 µM (inactive); GI50 (M19-MEL): 46.7 µM (inactive); GI50 (NCI-H23): 17.8 µM (inactive); GI50 (HOP-62): 60.5 µM (inactive); GI50 (SNB-19): 40.6 µM (inactive); GI50 (RXF 393): 22.8 µM (inactive); GI50 (OVCAR-3): 54 µM (inactive); GI50 (DMS-114): 34.2 µM (inactive); GI50 (HOP-92): 82.8 µM (inactive); GI50 (KM12): 22.1 µM (inactive); GI50 (SW-620): 21.5 µM (inactive)

Q: With O=C(/C=C/c1ccccc1O)c1ccccc1Cl as the compound, how does the GI50 (NCI-H226) read?
A: > 100 µM (inactive)

Q: And the GI50 (KM-20L2)?
A: > 100 µM (inactive)

Q: What about the GI50 (HCT-116) of the same compound?
A: 48.6 µM (inactive)

Q: What about the GI50 (UACC-62) of the same compound?
A: 67.5 µM (inactive)

Q: What about the GI50 (SN12C) of the same compound?
A: 56.4 µM (inactive)

Q: What about the GI50 (U-251) of the same compound?
A: 39.9 µM (inactive)

Q: And the GI50 (786-0)?
A: 92.5 µM (inactive)

Q: And the GI50 (MOLT-4)?
A: 30.7 µM (inactive)

Q: And the GI50 (SF-295)?
A: > 100 µM (inactive)

Q: What about the GI50 (EKVX) of the same compound?
A: 41.6 µM (inactive)

Q: What about the GI50 (SNB-78) of the same compound?
A: 47.2 µM (inactive)

Q: And the GI50 (NCI-H460)?
A: 34 µM (inactive)

Q: What about the GI50 (K562) of the same compound?
A: 23.4 µM (inactive)

Q: What about the GI50 (HOP-18) of the same compound?
A: 49.4 µM (inactive)

Q: What about the GI50 (OVCAR-4) of the same compound?
A: 19.2 µM (inactive)

Q: And the GI50 (HL-60)?
A: 15.3 µM (inactive)

Q: What about the GI50 (LXFL 529) of the same compound?
A: 30.5 µM (inactive)

Q: And the GI50 (SR)?
A: 27.7 µM (inactive)

Q: And the GI50 (HCT-15)?
A: 28.6 µM

Q: And the GI50 (OVCAR-5)?
A: > 100 µM (inactive)

Q: And the GI50 (HCC 2998)?
A: 38.1 µM (inactive)

Q: What about the GI50 (IGROV-1) of the same compound?
A: 32.6 µM (inactive)

Q: And the GI50 (SF-539)?
A: 44.5 µM (inactive)

Q: And the GI50 (Malme-3M)?
A: > 100 µM (inactive)

Q: And the GI50 (COLO 205)?
A: 33 µM (inactive)

Q: And the GI50 (LOX IMVI)?
A: 24.9 µM (inactive)

Q: And the GI50 (SK-MEL-5)?
A: 42.3 µM (inactive)

Q: What about the GI50 (ACHN) of the same compound?
A: 51.5 µM (inactive)

Q: And the GI50 (OVCAR-8)?
A: 58.6 µM (inactive)

Q: What about the GI50 (A549) of the same compound?
A: > 100 µM (inactive)

Q: What about the GI50 (UO-31) of the same compound?
A: 52.4 µM (inactive)

Q: What about the GI50 (HT-29) of the same compound?
A: > 100 µM (inactive)

Q: What about the GI50 (UACC-257) of the same compound?
A: > 100 µM (inactive)

Q: What about the GI50 (DMS-273) of the same compound?
A: 40.2 µM (inactive)

Q: And the GI50 (SK-MEL-2)?
A: 61.5 µM (inactive)

Q: And the GI50 (RXF 631)?
A: 52.7 µM (inactive)

Q: What about the GI50 (A498) of the same compound?
A: 90.4 µM (inactive)

Q: What about the GI50 (XF498) of the same compound?
A: 40.5 µM (inactive)

Q: And the GI50 (NCI-H522)?
A: 31.3 µM (inactive)

Q: What about the GI50 (SK-MEL-28) of the same compound?
A: > 100 µM (inactive)

Q: And the GI50 (DLD-1)?
A: 50.1 µM (inactive)

Q: What about the GI50 (SNB-75) of the same compound?
A: 14.8 µM (inactive)

Q: What about the GI50 (SK-OV-3) of the same compound?
A: 45.8 µM (inactive)

Q: And the GI50 (TK-10)?
A: 90.4 µM (inactive)

Q: What about the GI50 (M14) of the same compound?
A: 54.5 µM (inactive)

Q: What about the GI50 (SF-268) of the same compound?
A: 44.5 µM (inactive)

Q: What about the GI50 (CAKI-1) of the same compound?
A: 49.8 µM (inactive)

Q: What about the GI50 (M19-MEL) of the same compound?
A: 64.6 µM (inactive)

Q: What about the GI50 (NCI-H23) of the same compound?
A: 21.1 µM (inactive)

Q: And the GI50 (HOP-62)?
A: 75.7 µM (inactive)

Q: What about the GI50 (SNB-19) of the same compound?
A: 45.1 µM (inactive)

Q: And the GI50 (RXF 393)?
A: 43.1 µM (inactive)

Q: What about the GI50 (CCRF-CEM) of the same compound?
A: 19.3 µM (inactive)

Q: What about the GI50 (OVCAR-3) of the same compound?
A: 38.1 µM (inactive)

Q: What about the GI50 (DMS-114) of the same compound?
A: 21.3 µM (inactive)

Q: What about the GI50 (HOP-92) of the same compound?
A: 28.8 µM (inactive)

Q: And the GI50 (KM12)?
A: 24.6 µM (inactive)

Q: And the GI50 (SW-620)?
A: 35.5 µM (inactive)
